Where a name gives a salt, the structure may show the parent alone. Non-standard residues stand in square brackets, D forms with d. Residues, ends and D or L forms follow the SMILES beside them. No end group written: not given here. βAla = NCCC(=O)O
Key:
Type in all cases: cell-based
[1] = tested on: S. epidermidis clinical isolate (Motol); test: microbe, parasite or virus in culture; conditions: clinical isolate Motol, Bioscreen C, at least three times in duplicates
Protocol: (§1) Femur heads (ca. 70 pieces) taken from patients during hip replacement surgery were periodically purchased in the period between 2014–2017 as discarded from the bone tissue bank at University Hospital in Motol, Prague, Czech Republic. The reason for the replacements by artificial prosthesis was the worn out cartilage on the surface of their heads. Bone samples were stored at −80 °C under standard conditions of certified tissue banks. In the laboratory, they were kept at +5 °C overnight and then at room temperature for several hours before they could be used for the experiments. The experiments with this material were approved by the Ethics Committee for Multi-Centric Clinical Trials of the University Hospital Motol, Reference No: EK-655/15. Methicillin-resistant S. aureus (MRSA 6271) ATCC 43300 and P. aeruginosa (5482) ATCC 27853 were purchased from the Czech National Collection of Type Cultures, National Institute of Public Health, Prague, Czech Republic. Methicillin-resistant S. aureus (MRSA (L)) and P. aeruginosa (L) were obtained as multi-resistant clinical isolates from Liberec Regional Hospital, Liberec, Czech Republic. Methicillin-resistant S. aureus (MRSA (M)), E. faecalis and S. epidermidis were obtained as clinical isolates from University Hospital in Motol, Prague. Candida albicans (F7-39/IDE99) came from the mycological collection of the Faculty of Medicine, Palacky University, Olomouc, Czech Republic. C. albicans ATCC MYA-2876, C. tropicalis ATCC 750 and C. glabrata DSY565 were kindly provided by Dr. Hana Sychrová from the Institute of Physiology, Academy of Sciences of the Czech Republic, Prague. Vancomycin hydrochloride, gentamicin sulfate, ceftriaxone disodium salt, amphotericin B, fluconazole, and clotrimazole were obtained from Sigma-Aldrich, Prague, Czech Republic.
(§2) MIC values for peptides were established by observing growth of treated bacteria in HONEYCOMB 100-well microtiter plates (Helsinki, Finland) using a Bioscreen C instrument (Oy Growth Curves, Helsinki, Finland) as previously described. Haemolytic activity of peptides expressed as the concentration of a peptide required for lysis of 50% of human erythrocytes in the assay (LC50) was measured using a Tecan infinite M200 PRO reader (Tecan Austria GmbH, Grödig, Austria). Blood samples for determining haemolytic activity were obtained from healthy volunteers.

[2] = tested on: MRSA clinical isolate from University Hospital in Motol (MRSA (M)); test: microbe, parasite or virus in culture; conditions: clinical isolate Motol, Bioscreen C, at least three times in duplicates
Protocol: as §1, §2

MRSA 6271 (ATCC 43300) = test: microbe, parasite or virus in culture; conditions: growth in 100-well microtiter plates, Bioscreen C, tested at least three times in duplicates
Protocol: as §1, §2

[3] = tested on: MRSA clinical isolate from Liberec Regional Hospital (MRSA (L)); test: microbe, parasite or virus in culture; conditions: clinical isolate Liberec, Bioscreen C, at least three times in duplicates
Protocol: as §1, §2

[4] = tested on: P. aeruginosa (5482) ATCC 27853; test: microbe, parasite or virus in culture; conditions: Bioscreen C, at least three times in duplicates
Protocol: as §1, §2

[5] = tested on: E. faecalis clinical isolate (Motol); test: microbe, parasite or virus in culture; conditions: clinical isolate Motol, Bioscreen C, at least three times in duplicates
Protocol: as §1, §2

[6] = tested on: P. aeruginosa clinical isolate from Liberec Regional Hospital; test: microbe, parasite or virus in culture; conditions: clinical isolate Liberec, Bioscreen C, at least three times in duplicates
Protocol: as §1, §2

Candida albicans = conditions: Bioscreen C; at least three times in duplicates
Protocol: as §1, §2

human erythrocytes = test: Haemolysis assay; conditions: concentration causing lysis of 50% of human red blood cells; at least three times in duplicates
Protocol: as §2

| Molecule | MIC ([1]; Staphylococcus epidermidis, read-out: Antimicrobial Activity MIC, S. e. b) | MIC ([2]; Staphylococcus aureus, MRSA, read-out: Antimicrobial Activity MIC, MRSA b) | MIC (MRSA 6271 (ATCC 43300); Staphylococcus aureus, read-out: Antimicrobial Activity MIC, MRSA 6271) | MIC ([3]; Staphylococcus aureus, MRSA, read-out: Antimicrobial Activity MIC, MRSA a) | MIC ([4]; Pseudomonas aeruginosa, ATCC27853, read-out: Antimicrobial Activity MIC, P. a. 5482) | MIC ([5]; Enterococcus faecalis, read-out: Antimicrobial Activity MIC, E. f. b) | MIC ([6]; Pseudomonas aeruginosa, read-out: Antimicrobial Activity MIC, P. a. a) | Antimicrobial Activity MIC, C. a. (Candida albicans) | Haemolytic Activity LC50 (human erythrocytes) | Antimicrobial Activity MIC, S. e. b [1] | Antimicrobial Activity MIC, MRSA b [2] | Antimicrobial Activity MIC, MRSA 6271 (MRSA 6271 (ATCC 43300)) | Antimicrobial Activity MIC, MRSA a [3] | Antimicrobial Activity MIC, P. a. 5482 [4] | Antimicrobial Activity MIC, E. f. b [5] | Antimicrobial Activity MIC, P. a. a [6] |
| --- | --- | --- | --- | --- | --- | --- | --- | --- | --- | --- | --- | --- | --- | --- | --- | --- |
| CNC(C)C1CCC(N)C(OC2C(N)CC(N)C(OC3OCC(C)(O)C(NC)C3O)C2O)O1 (stereo not shown) [Gentamicin, gentamicin sulfate, reference compound] | 109 µM | 4.5 µM | 325 µM | 3.9 µM | 2 µM | 95.2 µM | > 220 µM |  |  |  |  |  |  |  |  |  |
| CC[C@@H](C)[C@@H](NC(=O)[C@@H](CCCCN)NC(=O)[C@@H](CCCCN)NC(=O)[C@@H](CC(C)C)NC(=O)[C@@H](CC(C)C)NC(=O)[C@@H](CCCCN)NC(=O)[C@@H](CCSC)NC(=O)[C@@H](Cc1c[nH]c2ccccc12)NC(=O)[C@@H](CCCCN)NC(=O)CN)C(=O)N[C@H](CC(C)C)C(=O)N[C@H](CCCCN)C(N)=O [II] (H-G[dK][dW][dM][dK][dL][dL][dK][dK][dI][dL][dK]-NH2; N-terminus assumed) |  |  |  |  |  |  |  | 5.7 µM | >400 µM | 2.0 µM | 9.7 µM | 11.3 µM | 5.3 µM | 4.5 µM | 12.7 µM | 12.5 µM |
| CC[C@@H](C)[C@@H](NC(=O)[C@@H](CCCCN)NC(=O)[C@@H](CCCCN)NC(=O)[C@@H](CC(C)C)NC(=O)[C@@H](CC(C)C)NC(=O)[C@@H](CCCCN)NC(=O)[C@H](NC(=O)[C@@H](Cc1c[nH]c2ccccc12)NC(=O)[C@@H](CCCCN)NC(=O)CN)C(C)C)C(=O)N[C@H](CC(C)C)C(=O)N[C@H](CCCCN)C(N)=O [VII] (H-G[dK][dW][dV][dK][dL][dL][dK][dK][dI][dL][dK]-NH2; N-terminus assumed) |  |  |  |  |  |  |  | 12.5 µM | >400 µM | 4.2 µM | 22.0 µM | 22.0 µM | 15.0 µM | 4.5 µM | 25.3 µM | 25.3 µM |
| CC[C@@H](C)[C@@H](NC(=O)[C@@H](CCCCN)NC(=O)[C@@H](CCCCN)NC(=O)[C@@H](CC(C)C)NC(=O)[C@@H](CC(C)C)NC(=O)[C@@H](CCCCN)NC(=O)[C@@H](CCSC)NC(=O)[C@@H](Cc1c[nH]c2ccccc12)NC(=O)[C@@H](CCCCN)NC(=O)CCN)C(=O)N[C@H](CC(C)C)C(=O)N[C@H](CCCCN)C(N)=O [XII] (H-[βAla][dK][dW][dM][dK][dL][dL][dK][dK][dI][dL][dK]-NH2; N-terminus assumed) |  |  |  |  |  |  |  | 5.3 µM | >400 µM | 2.5 µM | 16.0 µM | 16.0 µM | 8.0 µM | 3.2 µM | 32.0 µM | 8.0 µM |
| CC[C@@H](C)[C@@H](NC(=O)[C@@H](CCCCN)NC(=O)[C@@H](CCCCN)NC(=O)[C@@H](CC(C)C)NC(=O)[C@@H](CC(C)C)NC(=O)[C@@H](CCCCN)NC(=O)[C@@H](CCSC)NC(=O)[C@@H](Cc1c[nH]c2ccccc12)NC(=O)[C@H](N)CCCCN)C(=O)N[C@H](CC(C)C)C(=O)N[C@H](CCCCN)C(N)=O [X] (H-[dK][dW][dM][dK][dL][dL][dK][dK][dI][dL][dK]-NH2; N-terminus assumed) |  |  |  |  |  |  |  | 11.3 µM | >400 µM | 3.5 µM | 14.0 µM | 19.3 µM | 14.0 µM | 4.5 µM | 36 µM | 18.0 µM |
| GKWKKLLKKILK-NH2 [III] |  |  |  |  |  |  |  | 9.5 µM | >400 µM | 4.7 µM | 25.3 µM | 29.7 µM | 11.5 µM | 2.9 µM | >100 µM | 9.5 µM |
| GKWLKLLKKILK-NH2 [V] |  |  |  |  |  |  |  | 16.0 µM | 196 µM | 2.2 µM | 10.0 µM | 10.0 µM | 8.0 µM | 4.0 µM | 50.7 µM | 10.7 µM |
| GKWMKMLKKILK-NH2 [IV] |  |  |  |  |  |  |  | 12.7 µM | >200 µM | 3.2 µM | 20.0 µM | 20.0 µM | 10.0 µM | 5.3 µM | >100 µM | 12.7 µM |
| GKWVKLLKKILK-NH2 [VI] |  |  |  |  |  |  |  | 6.3 µM | >400 µM | 2.5 µM | 10.0 µM | 9.0 µM | 5.0 µM | 3.0 µM | >100 µM | 12.7 µM |
| KWMKLLKKILK-NH2 [IX] |  |  |  |  |  |  |  | 9.5 µM | >400 µM | 3.2 µM | 17.7 µM | 13.5 µM | 8.0 µM | 2.9 µM | >100 µM | 5.8 µM |
